From publication PMC10714399, “Open Source Antibiotics: Simple Diarylimidazoles Are Potent against Methicillin-Resistant Staphylococcus aureus” (ACS Infectious Diseases, 2023) come the findings set out here.

Data set [1] has as its system Enterococcus faecalis ATCC 51299 (vanA-positive; vancomycin-resistant). In words: In vitro antibacterial activity, MIC (UCL), VRE. It counts as cell-based. To be noted: read-out: VRE MIC (UCL). A digest of the protocol:
(§1)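 Two-fold dilution MIC testing, 32–0.03 μg/mL, isosensitest broth medium. Cultures standardized by absorbance at 600 nm (0.1, ~1 × 10^8 CFU/mL) before 1:100 dilution; vancomycin included for quality control.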

Data set [2] has as its system MRC-5SV2 (human lung fibroblast cell line). In words: Toxicity against MRC-5SV2. Format: cell-based. As to conditions: MRC5 cells. How it is done: (§2) ADME and toxicity for compounds were measured according to procedures outlined in the manuscript submitted in parallel to this one;2 other procedures were used for those compounds analysed by Monash University (in vitro ADME) or UCL (toxicity), both described in the main

Data set [3] can be described thus: Aqueous solubility. It counts as physicochemical. As to conditions: NEU; for solubility: thermodynamic from solid, read-out: Aqueous Solubility (NEU).
From the text: To guide our initial SAR exploration work, we obtained liver microsomal intrinsic clearance data for 5 of the 18 compounds assayed by CO-ADD (Supporting Information - CDCO Report and Supporting Information - Biology). We then acquired intrinsic clearance (CLint), plasma protein binding (PPB), and solubility data on further compounds throughout the SAR campaign (Supporting Information - Biology, Tables S3 and S4). […] The more polar compounds (lower LogD) had reduced PPB and were more metabolically stable.
(§3) Table S4. ADME and Pharmacokinetics: compounds only appearing in the Supplementary […]
(§4) MRSA Aqueous HLM CLint Rat Hep CLint
(§5) Cmpd MIC Solubility Human PPB (%) (µL/min/mg (µL/min/10x6 LogD7.4
(§6) (µg/mL) (µM) protein) cells)
as §2

The subject of data set [4] is PMM (primary mouse macrophages). In words: Toxicity against PMM. Format: cell-based. As to conditions: PMM. How it is done:
as §2

Data set [5] in a line: Human liver microsome intrinsic clearance. As to conditions: human liver microsomes, NEU; for microsomal CLint: read-out: HLM CLint (NEU). It counts as in vitro ADME.
From the text: (§7) To guide our initial SAR exploration work, we obtained liver microsomal intrinsic clearance data for 5 of the 18 compounds assayed by CO-ADD (Supporting Information - CDCO Report and Supporting Information - Biology). We then acquired intrinsic clearance (CLint), plasma protein binding (PPB), and solubility data on further compounds throughout the SAR campaign (Supporting Information - Biology, Tables S3 and S4).
as §3, §4, §5, §6, §2

Data set [6] in a line: Rat hepatocyte intrinsic clearance. To be noted: rat hepatocytes, NEU; for hepatocyte CLint: read-out: Rat Hep CLint (NEU). It counts as in vitro ADME.
From the text: as §7, §3, §4, §5, §6, §2

Data set [7] can be described thus: Human plasma protein binding (PPB). Format: in vitro ADME. As to conditions: human, plasma, human plasma, NEU; read-out: Human PPB (NEU) (converted).
From the text: as §7, §3, §4, §5, §6, §2

Data set [8] has as its system Staphylococcus aureus NCTC 13373 (mecA-positive; methicillin-resistant). Put plainly: In vitro antibacterial activity, MIC (UCL School of Pharmacy assay), MRSA. It counts as cell-based. To be noted: Staphylococcus aureus, UCL; read-out: MRSA MIC (UCL). The method in brief:
as §1

Data set [9] concerns S. aureus ATCC 25923 (methicillin-susceptible). In words: In vitro antibacterial activity, MIC (UCL), MSSA. Format: cell-based, Staphylococcus aureus. As to conditions: Staphylococcus aureus; read-out: MSSA MIC (UCL). A digest of the protocol: as §1
Data set [10] concerns VSE. Put plainly: In vitro antibacterial activity, MIC, VSE. Format: cell-based. To be noted: read-out: VSE MIC (UCL).

≈ marks a conversion by molar mass, not a printed value. A value given as a limit tells only on which side of the number the result lay.

As to `Clc1ccc(-c2c(-c3ccccn3)nc3n2CCC3)cc1` [OSA_000875], the MIC in data set [1] is 16 µg/mL (≈ 54.1 µM); in data set [8], 4 µg/mL (≈ 13.5 µM). Further, in [2], the “MRC5 TC50” value came out at 5.45 µM. Moreover, in data set [3], the solubility was found to be 4 µM (≈ 1.18 µg/mL). Moreover, in data set [4], the “PMM TC50” value is 8 µM. For the same molecule, in data set [5], the microsomal CLint worked out at 168 µL/min/mg. Further, the “Rat Hep CLint (NEU)” value in data set [6] was found to be 21.9 uL/min/10x6 cells. In [7], the fraction unbound is 0.033.
With `N#Cc1ccc(-c2c(-c3ccccn3)nc3n2CCC3)cc1` [OSA_000975], the MIC in [1] is 16 µg/mL (≈ 55.9 µM); in data set [8], 4 µg/mL (≈ 14 µM). The “MRC5 TC50” value in data set [2] came out at 25.9 µM. Further, the “Aqueous Solubility (NEU)” value in data set [3] came to 38 µM. In [4], the “PMM TC50” value is 64 µM. Further, the “HLM CLint (NEU)” value in [5] worked out at 99.1 uL/min/mg protein. Also, in data set [6], the “Rat Hep CLint (NEU)” value worked out at 7.99 uL/min/10x6 cells. Also, the fraction unbound in data set [7] is 0.29.
`Fc1ccc(N(CC2CC2)c2c(-c3ccccn3)nc3ccccn23)cc1` [OSA_000979]: the MIC worked out at 4 µg/mL (≈ 11.2 µM) in data set [1], 2 µg/mL (≈ 5.58 µM) in data set [9] and 2 µg/mL (≈ 5.58 µM) in [8]. The “MRC5 TC50” value in data set [2] was 7.8 µM. Moreover, the solubility in [3] stood at 2 µM (≈ 0.717 µg/mL). In data set [4], the “PMM TC50” value came to 4 µM. Moreover, the microsomal CLint in [5] turned out to be 105 µL/min/mg. Besides, the “Rat Hep CLint (NEU)” value in data set [6] came out at 141 uL/min/10x6 cells. In [7], the fraction unbound was 0.0067.
Regarding `COc1ccc2nc(-c3ccccn3)c(N(C)c3ccc(F)cc3)n2c1` [OSA_000980], the MIC in [1] came out at 8 µg/mL (≈ 23 µM); in data set [9], 4 µg/mL (≈ 11.5 µM); in data set [8], 4 µg/mL (≈ 11.5 µM). Further, the “MRC5 TC50” value in data set [2] was found to be 2 µM. The solubility in data set [3] came to 17 µM (≈ 5.92 µg/mL). The “PMM TC50” value in data set [4] came out at 8 µM. The “HLM CLint (NEU)” value in data set [5] came out at 251 uL/min/mg protein. Further, the hepatocyte CLint in data set [6] was above 300 µL/min/1e6 cells. The fraction unbound in [7] is 0.02.
Turning to `CCN(c1ccc(F)cc1)c1c(-c2ccccn2)nc2ccccn12` [OSA_000981], the figures for the MIC in data set [1], in [9] and in [8] were 8 µg/mL (≈ 24.1 µM), 2 µg/mL (≈ 6.02 µM) and 2 µg/mL (≈ 6.02 µM), respectively. Also, in data set [2], the “MRC5 TC50” value came out at 4.9 µM. Moreover, in data set [3], the solubility was determined as 31 µM (≈ 10.3 µg/mL). Further, in data set [4], the “PMM TC50” value turned out to be 8 µM. Also, the “HLM CLint (NEU)” value in [5] came to 180 uL/min/mg protein. Also, the hepatocyte CLint in [6] is 148 µL/min/1e6 cells. In [7], the fraction unbound is 0.022.
For `CCCN(c1ccc(F)cc1)c1c(-c2ccccn2)nc2ccccn12` [OSA_000982], the MIC in data set [1] is 4 µg/mL (≈ 11.5 µM); in data set [9], 2 µg/mL (≈ 5.77 µM); in data set [8] it was 2 µg/mL (≈ 5.77 µM). Further, in data set [2], the “MRC5 TC50” value was 4.3 µM. Further, the “Aqueous Solubility (NEU)” value in data set [3] worked out at 3 µM. Moreover, the “PMM TC50” value in [4] is 2 µM. Besides, the “HLM CLint (NEU)” value in [5] was found to be 61.8 uL/min/mg protein. Further, in data set [6], the “Rat Hep CLint (NEU)” value was 108 uL/min/10x6 cells. For the same molecule, the fraction unbound in data set [7] is 0.0073.
As to `CC(C)CN(c1ccc(F)cc1)c1c(-c2ccccn2)nc2ccccn12` [OSA_000983], the MIC in data set [1] came to 8 µg/mL (≈ 22.2 µM); in data set [9] it was 4 µg/mL (≈ 11.1 µM); in data set [8], 2 µg/mL (≈ 5.55 µM). In addition, the “MRC5 TC50” value in [2] came to 54 µM. Further, the “Aqueous Solubility (NEU)” value in [3] came to 8 µM. In addition, in data set [4], the “PMM TC50” value came to 23 µM. The “HLM CLint (NEU)” value in data set [5] came out at 58.8 uL/min/mg protein. For the same molecule, the “Rat Hep CLint (NEU)” value in [6] is given as 234 uL/min/10x6 cells. Besides, in [7], the fraction unbound is 0.0042.
Regarding `Clc1ccn2c(-c3ccc4occc4c3)c(-c3ccccn3)nc2c1` [OSA_000985], the MIC in data set [1] was found to be 16 µg/mL (≈ 46.3 µM); in data set [9], 8 µg/mL (≈ 23.1 µM); in data set [10] it was 16 µg/mL (≈ 46.3 µM); in data set [8] it was 8 µg/mL (≈ 23.1 µM).
In the case of `Fc1cc(-c2c(-c3ccccn3)nc3ccccn23)ccn1` [OSA_000986], the MIC in [1], in [9], in data set [10] and in data set [8] was above 32 µg/mL each time.
For the molecule `NC(=O)c1ccc(-n2c(-c3ccccn3)nc3ccccc32)cc1` [OSA_000989], the MIC in data set [1], in data set [9], in data set [10] and in data set [8] was above 32 µg/mL throughout. For the same molecule, in data set [2], the “MRC5 TC50” value was found to be 64 µM. In addition, the “PMM TC50” value in data set [4] was 64 µM.
Consider `N#Cc1ccc(-n2c(-c3ccccn3)nc3ccccc32)cc1` [OSA_000990], for which the MIC in [1], in data set [9], in [10] and in [8] was above 32 µg/mL each time. In addition, the “MRC5 TC50” value in data set [2] came to 64 µM. The “PMM TC50” value in data set [4] is 64 µM.
